Assay results published in article PMC4501059, “Responding to the challenge of untreatable gonorrhea: ETX0914, a first-in-class agent with a distinct mechanism-of-action against bacterial Type II topoisomerases” (Scientific Reports, 2015).
Converted amounts (≈) assume the structure as drawn. Read-outs that look alike come from different tables or passages of the source.

Legend:
[1] = tested on: mammalian erythroid cell lines; test: erythroid cytotoxicity (growth inhibition); format: cell-based; conditions: read-out: Erythroid IC50
Experimental: (§1) In vitro toxicology. Experiments for assessing micronuclei in mouse lymphoma cells^19 myeloid cytotoxicity^20 and erythroid cytotoxicity^21 were performed as described previously.

mouse lymphoma cells = test: in vitro mouse micronucleus aberration assay (MMA); format: cell-based
Experimental: as §1

[2] = tested on: mammalian myeloid cell lines; test: myeloid cytotoxicity (growth inhibition); format: cell-based; conditions: read-out: Myeloid IC50
Experimental: as §1

[3] = tested on: S. aureus AP607004 (MRQR); test: MIC (CLSI broth microdilution); format: cell-based
S. aureus ARC516 = test: MIC (CLSI broth microdilution); format: cell-based
[4] = tested on: S. pneumoniae ARC2205 (ERQR); test: MIC (CLSI broth microdilution); format: cell-based
S. pneumoniae ATCC49619 = test: MIC (CLSI broth microdilution); format: cell-based
hERG = hERG (Homo sapiens, UniProt Q12809); test: In vitro ion channel function; conditions: hERG IC50, K^+ rectifying current/QT interval
Ito/Kv4.3 = target: T1, Ito/Kv4.3 (Homo sapiens, UniProt Q9UK17); test: In vitro ion channel function; format: cell-based; conditions: Ito/Kv4.3 IC50, Transient outward K^+ early repolarization
T1 sequence (Q9UK17 1-655): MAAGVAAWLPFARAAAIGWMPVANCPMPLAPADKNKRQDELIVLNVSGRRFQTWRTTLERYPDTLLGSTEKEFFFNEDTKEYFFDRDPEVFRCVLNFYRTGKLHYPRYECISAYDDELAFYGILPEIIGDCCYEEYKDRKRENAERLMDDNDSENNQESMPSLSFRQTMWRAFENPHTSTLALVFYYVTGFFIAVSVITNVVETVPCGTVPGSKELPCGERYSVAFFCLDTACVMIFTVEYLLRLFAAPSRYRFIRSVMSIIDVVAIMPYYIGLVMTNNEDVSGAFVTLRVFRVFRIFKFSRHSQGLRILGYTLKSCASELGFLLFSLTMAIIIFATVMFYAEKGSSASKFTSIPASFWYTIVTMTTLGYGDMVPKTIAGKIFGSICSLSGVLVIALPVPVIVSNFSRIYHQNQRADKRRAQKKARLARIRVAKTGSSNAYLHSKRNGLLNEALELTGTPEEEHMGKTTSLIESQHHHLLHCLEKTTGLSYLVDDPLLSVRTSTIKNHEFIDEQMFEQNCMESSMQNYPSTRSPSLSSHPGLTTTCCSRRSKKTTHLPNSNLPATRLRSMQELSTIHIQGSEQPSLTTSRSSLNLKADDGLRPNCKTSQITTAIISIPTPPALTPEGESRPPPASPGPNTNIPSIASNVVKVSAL
Source text: (§2) Supplement srep11827-s1.doc, table 3 | column: Table S2: In vitro ion channel function IC50 (µM)

Iks/Kv7.1 = Iks/Kv7.1 (Homo sapiens, UniProt P51787); test: In vitro ion channel function; format: cell-based; conditions: Iks/Kv7.1 IC50, Slowly activating K^+ delayed rectifier
Source text: as §2

hCav1.2 = hCav1.2 (Homo sapiens, UniProt Q13936); test: In vitro ion channel function; format: cell-based; conditions: hCav1.2 IC50, Ca^2+ entry into excitable cells
Source text: as §2

hNav1.5 = hNav1.5 (Homo sapiens, UniProt Q14524); test: In vitro ion channel function; format: cell-based; conditions: hNav1.5 IC50, Initiation of cardiac action potential/QRS interval
Source text: as §2

Kv1.5 = Kv1.5 (Homo sapiens, UniProt P22460); test: In vitro ion channel function; format: cell-based; conditions: Ikr/Kv1.5 IC50, Rapidly activating K^+ delayed rectifier
Source text: as §2

Dog pharmacokinetics = format: in vivo, Beagle dog; conditions: beagle, dog, plasma
Experimental: AZD0914 was analyzed in mouse, rat, dog, monkey plasma using a qualified method which was later validated for human plasma analysis. The validated human method is described below and is representative of the approach taken in other species. AZD0914 was determined in human plasma prepared with K2EDTA as an anticoagulant. AZD0914 and an internal standard (^13C2, ^15N2 AZD0914) were extracted from plasma with tert- butyl methyl ether. After evaporating to dryness under a stream of nitrogen, the residue was reconstituted and quantitated by reverse phase HPLC-MS/MS against a standard curve from 1.00 to 5000 ng/ml. Separation was achieved using a gradient which went from 55% to 85% methanol:acetonitrile (1:1) containing 0.2% formic acid as mobile phase B and 0.2% formic acid in water as mobile phase A at a flow rate of 0.60 ml/min through a Phenomonex Gemini C18 column (50 x 2.0 mm column, […]) heated using a Shimadzu CTO-20AC set to 40 °C. AZD0914 was detected in multiple reaction monitoring (MRM) mode by positive ion electrospray ionization using a Sciex API5500 (Toronto, Canada) mass spectrometer. The ion spray voltage was set to 5500 V and turboionspray temperature was 650 °C. AZD0914 was quantitated using the MRM transition 488.2 → 348.2 using a collision energy of 29 eV. The internal standard, (^13C2, ^15N2 AZD0914), was monitored using identical conditions except for the MRM transition of 492.2 → 348.2.

[5] = tested on: N. gonorrhoeae ARC4676 (QR); format: cell-based
N. gonorrhoeae ATCC49226 = test: MIC (CLSI agar dilution); format: cell-based
[6] = Human plasma protein binding (PPB); conditions: plasma
Neisseria gonorrhoeae = conditions: cited from earlier work
Staphylococcus aureus = conditions: cited from earlier work
[7] = tested on: resistant isolates of S. aureus, S. pneumoniae and N. gonorrhoeae; format: cell-based; conditions: for susceptibility of spontaneous ETX0914 resistant mutants: S. aureus and N. gonorrhoeae GyrB mutants
[8] = comparative haematology analysis in the rat, oral dosing; conditions: for AUC: in vivo, po
[9] = Table 2, first entry of the cell (ciprofloxacin: 250 mg UID line)

hERG, sequence (Q12809 whole entry): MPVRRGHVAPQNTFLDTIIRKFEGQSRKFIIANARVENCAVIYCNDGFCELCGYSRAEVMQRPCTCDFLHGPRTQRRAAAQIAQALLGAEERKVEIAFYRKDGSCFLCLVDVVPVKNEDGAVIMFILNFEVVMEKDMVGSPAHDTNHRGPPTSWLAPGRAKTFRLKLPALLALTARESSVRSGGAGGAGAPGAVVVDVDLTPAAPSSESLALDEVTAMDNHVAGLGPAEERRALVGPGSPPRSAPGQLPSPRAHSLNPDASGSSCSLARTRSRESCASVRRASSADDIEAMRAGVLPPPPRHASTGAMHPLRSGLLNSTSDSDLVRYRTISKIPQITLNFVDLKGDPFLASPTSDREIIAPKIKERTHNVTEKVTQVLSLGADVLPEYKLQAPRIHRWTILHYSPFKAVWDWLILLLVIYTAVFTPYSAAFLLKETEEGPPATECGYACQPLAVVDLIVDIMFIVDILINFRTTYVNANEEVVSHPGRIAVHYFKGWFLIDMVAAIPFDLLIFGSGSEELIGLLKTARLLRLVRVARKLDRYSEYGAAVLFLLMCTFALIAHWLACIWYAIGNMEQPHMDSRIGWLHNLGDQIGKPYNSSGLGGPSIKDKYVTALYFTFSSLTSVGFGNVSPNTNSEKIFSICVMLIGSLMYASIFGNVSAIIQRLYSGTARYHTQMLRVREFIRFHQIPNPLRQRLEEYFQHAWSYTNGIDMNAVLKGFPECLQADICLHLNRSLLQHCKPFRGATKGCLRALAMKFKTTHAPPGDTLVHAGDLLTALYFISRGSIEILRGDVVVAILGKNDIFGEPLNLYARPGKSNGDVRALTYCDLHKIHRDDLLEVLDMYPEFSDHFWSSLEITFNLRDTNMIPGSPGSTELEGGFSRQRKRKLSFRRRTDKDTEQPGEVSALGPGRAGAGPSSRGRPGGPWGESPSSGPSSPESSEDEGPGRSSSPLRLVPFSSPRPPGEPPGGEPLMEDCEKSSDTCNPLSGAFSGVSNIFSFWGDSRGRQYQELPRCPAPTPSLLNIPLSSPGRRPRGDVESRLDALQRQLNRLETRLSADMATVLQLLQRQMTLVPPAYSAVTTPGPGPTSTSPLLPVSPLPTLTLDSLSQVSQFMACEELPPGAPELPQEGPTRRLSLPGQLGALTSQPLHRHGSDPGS
hNav1.5, sequence (Q14524 whole entry): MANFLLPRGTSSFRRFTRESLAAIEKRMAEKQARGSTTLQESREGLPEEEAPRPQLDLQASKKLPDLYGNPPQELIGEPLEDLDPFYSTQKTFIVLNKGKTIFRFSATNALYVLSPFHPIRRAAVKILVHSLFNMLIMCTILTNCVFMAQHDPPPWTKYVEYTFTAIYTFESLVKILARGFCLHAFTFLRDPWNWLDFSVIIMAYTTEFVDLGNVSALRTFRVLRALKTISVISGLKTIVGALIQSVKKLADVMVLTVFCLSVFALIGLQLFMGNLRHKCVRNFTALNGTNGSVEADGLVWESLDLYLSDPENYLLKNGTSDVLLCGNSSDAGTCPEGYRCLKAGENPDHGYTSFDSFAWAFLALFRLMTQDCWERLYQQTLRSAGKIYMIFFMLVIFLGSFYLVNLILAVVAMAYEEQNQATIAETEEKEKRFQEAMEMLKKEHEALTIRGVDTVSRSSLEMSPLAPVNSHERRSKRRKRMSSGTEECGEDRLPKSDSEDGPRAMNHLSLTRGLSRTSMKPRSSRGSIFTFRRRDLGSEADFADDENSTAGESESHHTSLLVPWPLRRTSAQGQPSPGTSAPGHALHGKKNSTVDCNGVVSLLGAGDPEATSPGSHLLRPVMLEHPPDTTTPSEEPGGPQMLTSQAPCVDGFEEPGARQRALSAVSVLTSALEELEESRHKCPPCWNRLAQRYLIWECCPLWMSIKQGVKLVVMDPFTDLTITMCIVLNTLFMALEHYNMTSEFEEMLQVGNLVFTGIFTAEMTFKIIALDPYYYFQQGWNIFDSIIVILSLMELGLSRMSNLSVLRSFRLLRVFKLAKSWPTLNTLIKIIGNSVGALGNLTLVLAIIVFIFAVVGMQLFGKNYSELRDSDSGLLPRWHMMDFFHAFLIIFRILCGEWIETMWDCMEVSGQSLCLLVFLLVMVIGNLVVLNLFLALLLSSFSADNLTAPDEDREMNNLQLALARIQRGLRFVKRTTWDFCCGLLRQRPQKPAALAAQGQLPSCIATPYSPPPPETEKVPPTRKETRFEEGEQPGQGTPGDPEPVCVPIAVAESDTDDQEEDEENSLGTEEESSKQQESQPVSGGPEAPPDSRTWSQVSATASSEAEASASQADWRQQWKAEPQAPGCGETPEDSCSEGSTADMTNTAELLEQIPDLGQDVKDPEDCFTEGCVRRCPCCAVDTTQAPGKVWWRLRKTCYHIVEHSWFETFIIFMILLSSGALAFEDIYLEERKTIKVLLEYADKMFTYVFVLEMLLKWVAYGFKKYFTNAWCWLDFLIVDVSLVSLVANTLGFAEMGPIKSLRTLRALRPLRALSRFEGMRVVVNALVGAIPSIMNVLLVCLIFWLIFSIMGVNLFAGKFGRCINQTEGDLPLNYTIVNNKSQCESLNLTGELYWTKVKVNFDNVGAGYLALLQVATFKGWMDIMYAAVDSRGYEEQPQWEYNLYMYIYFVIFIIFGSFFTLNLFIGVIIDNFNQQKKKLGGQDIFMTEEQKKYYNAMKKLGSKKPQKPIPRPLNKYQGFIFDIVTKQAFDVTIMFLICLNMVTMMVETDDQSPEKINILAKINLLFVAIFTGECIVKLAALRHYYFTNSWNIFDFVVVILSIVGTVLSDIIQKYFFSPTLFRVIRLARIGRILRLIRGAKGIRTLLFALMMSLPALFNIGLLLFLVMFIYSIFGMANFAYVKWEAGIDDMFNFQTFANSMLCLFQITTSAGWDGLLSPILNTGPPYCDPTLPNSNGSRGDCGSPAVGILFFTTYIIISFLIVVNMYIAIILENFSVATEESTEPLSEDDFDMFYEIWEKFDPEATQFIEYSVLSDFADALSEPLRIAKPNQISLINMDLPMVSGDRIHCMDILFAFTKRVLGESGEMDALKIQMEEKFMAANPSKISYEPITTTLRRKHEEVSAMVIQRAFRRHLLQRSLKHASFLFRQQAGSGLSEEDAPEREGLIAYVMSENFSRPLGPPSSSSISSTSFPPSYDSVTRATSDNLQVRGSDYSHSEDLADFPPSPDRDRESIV
Iks/Kv7.1, sequence (P51787 whole entry): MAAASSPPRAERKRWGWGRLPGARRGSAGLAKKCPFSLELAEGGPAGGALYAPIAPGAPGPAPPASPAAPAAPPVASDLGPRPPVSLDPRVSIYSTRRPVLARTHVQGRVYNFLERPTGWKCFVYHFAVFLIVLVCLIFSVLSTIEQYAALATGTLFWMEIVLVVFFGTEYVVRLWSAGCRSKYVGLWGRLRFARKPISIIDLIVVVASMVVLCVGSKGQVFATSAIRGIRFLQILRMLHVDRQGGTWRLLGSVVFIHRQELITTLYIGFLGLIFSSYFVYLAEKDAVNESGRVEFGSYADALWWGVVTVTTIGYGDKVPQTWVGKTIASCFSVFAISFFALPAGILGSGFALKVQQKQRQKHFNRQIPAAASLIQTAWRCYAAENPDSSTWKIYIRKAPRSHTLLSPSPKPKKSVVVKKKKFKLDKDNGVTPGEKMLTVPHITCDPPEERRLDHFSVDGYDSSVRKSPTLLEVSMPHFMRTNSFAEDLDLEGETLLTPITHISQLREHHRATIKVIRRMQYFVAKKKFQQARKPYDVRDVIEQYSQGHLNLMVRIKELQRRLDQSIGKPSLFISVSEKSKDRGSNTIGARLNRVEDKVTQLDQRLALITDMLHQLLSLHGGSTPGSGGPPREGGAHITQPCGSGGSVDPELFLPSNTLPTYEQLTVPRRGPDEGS
Kv1.5, sequence (P22460 whole entry): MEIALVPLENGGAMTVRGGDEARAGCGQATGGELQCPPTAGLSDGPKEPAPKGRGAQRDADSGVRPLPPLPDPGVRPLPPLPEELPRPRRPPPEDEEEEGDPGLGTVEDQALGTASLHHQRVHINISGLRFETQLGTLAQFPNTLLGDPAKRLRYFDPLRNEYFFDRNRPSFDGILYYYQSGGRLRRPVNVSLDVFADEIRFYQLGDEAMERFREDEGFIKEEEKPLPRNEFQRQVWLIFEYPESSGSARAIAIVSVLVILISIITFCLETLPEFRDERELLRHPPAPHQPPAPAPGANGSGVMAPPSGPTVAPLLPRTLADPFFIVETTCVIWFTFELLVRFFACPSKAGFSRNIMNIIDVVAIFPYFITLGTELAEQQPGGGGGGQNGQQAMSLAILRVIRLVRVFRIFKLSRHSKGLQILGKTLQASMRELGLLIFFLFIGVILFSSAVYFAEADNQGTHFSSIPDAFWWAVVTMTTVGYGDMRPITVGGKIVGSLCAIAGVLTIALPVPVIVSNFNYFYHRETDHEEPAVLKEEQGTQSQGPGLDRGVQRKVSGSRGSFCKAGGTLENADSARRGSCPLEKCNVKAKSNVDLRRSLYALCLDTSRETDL

Compound | IC50 [1] | Micronucleus NOEL (mouse lymphoma cells; in vitro) | IC50 [2] | MIC: S. aureus AP607004 (MRQR) [3] | MIC: S. aureus ARC516 (S. aureus ARC516) | MIC: S. pneumoniae ARC2205 (ERQR) [4] | MIC: S. pneumoniae ATCC49619 (S. pneumoniae ATCC49619) | IC50 (hERG) | IC50 (Ito/Kv4.3) | IC50 (Iks/Kv7.1) | IC50 (hCav1.2) | IC50 (hNav1.5) | solubility (physchem) | Dog F (Dog pharmacokinetics) | clearance (Dog pharmacokinetics) | MIC: N. gonorrhoeae ARC4676 (QR) [5] | MIC: N. gonorrhoeae ATCC49226 (N. gonorrhoeae ATCC49226) | fraction unbound [6] | further results
CO/N=C1\CN(c2nc3c(cc2F)c(=O)c(C(=O)O)cn3C2CC2)CC1CN (stereo not drawn) [Gemifloxacin, reference compound] | 7 µM | 3 µM | 10 µM | – | – | – | – | – | – | – | – | – | – | – | – | – | – | – | concentration giving a measurable genotoxicity signal in the in vitro MMA (mouse lymphoma cells): 6 µM
C[C@H]1COc2c(N3CCN(C)CC3)c(F)cc3c(=O)c(C(=O)O)cn1c23 [Levofloxacin, reference compound] | 88 µM | – | 79 µM | 8 µg/mL (≈ 22.1 µM) | 0.25 µg/mL (≈ 0.692 µM) | 16 µg/mL (≈ 44.3 µM) | 0.5 µg/mL (≈ 1.38 µM) | – | – | – | – | – | – | – | – | – | – | – | –
C[C@@H]1CN2c3c(cc4c(N5C(=O)OC[C@@H]5C)noc4c3F)CC3(C(=O)NC(=O)NC3=O)[C@H]2[C@H](C)O1 [Compound 1] | – | – | – | – | – | – | – | 232 µM | > 292 µM | > 316 µM | > 100 µM | > 316 µM | – | – | – | – | – | – | IC50 (Kv1.5): > 100 µM
C[C@@H]1CN2c3c(cc4c(C(=O)NCC(F)(F)F)noc4c3F)CC3(C(=O)NC(=O)NC3=O)[C@H]2[C@H](C)O1 [Compound 7] | 95 µM | 100 µM | 43 µM | 0.25 µg/mL (≈ 0.487 µM) | 0.125 µg/mL (≈ 0.243 µM) | 0.125 µg/mL (≈ 0.243 µM) | 0.125 µg/mL (≈ 0.243 µM) | 91 µM | > 90 µM | > 100 µM | > 100 µM | > 100 µM | 77 µM (≈ 39.5 µg/mL) | 74% | 5.8 mL/min/kg | 0.25 µg/mL (≈ 0.487 µM) | 0.25 µg/mL (≈ 0.487 µM) | 0.13 | IC50 (Kv1.5): > 100 µM
CC1COc2c(N3CCN(C)CC3)c(F)cc3c(=O)c(C(=O)O)cn1c23 (stereo not drawn) [Ofloxacin, reference compound] | – | – | – | – | – | – | – | – | – | – | – | – | – | – | – | – | – | – | MIC90, gonococcal infection (N. gonorrhoeae) (Neisseria gonorrhoeae; [9]): 0.25 to 0.5 µg/mL; MIC90, skin infection (S. aureus) (Staphylococcus aureus; Table 2): 2 µg/mL (≈ 5.53 µM)
Cc1noc2c(F)c3c(cc12)CC1(C(=O)NC(=O)NC1=O)[C@H]1[C@H](C)O[C@H](C)CN31 [Compound 5, (2R,4S,4aS)-11-Fluoro-2,4,8-trimethyl-2,4,4a,6-tetrahydro-1H,1'H-spiro[isoxazolo[4,5-g][1,4]oxazino[4,3-a]quinoline-5,5'-pyrimidine]-2',4',6'(3'H)-trione] | – | 50 µM | – | 0.5 µg/mL (≈ 1.24 µM) | 0.25 µg/mL (≈ 0.621 µM) | 2.0 µg/mL (≈ 4.97 µM) | 1.0 µg/mL (≈ 2.49 µM) | > 100 µM | > 100 µM | > 100 µM | > 100 µM | > 80 µM | 210 µM (≈ 84.5 µg/mL) | 47% | 5.3 mL/min/kg | 0.5 µg/mL (≈ 1.24 µM) | 0.5 µg/mL (≈ 1.24 µM) | 0.094 | concentration giving a measurable genotoxicity signal in the in vitro MMA (mouse lymphoma cells; mouse): 100 µM; IC50 (Kv1.5): > 100 µM
O=C(O)c1cn(C2CC2)c2cc(N3CCNCC3)c(F)cc2c1=O [Ciprofloxacin 2, Ciprofloxacin, reference compound] | – | – | – | – | – | – | – | – | – | – | – | – | – | – | – | – | – | – | Micronucleus NOEL (mouse lymphoma cells; mouse): 200 µM; MIC90, gonococcal infection (N. gonorrhoeae) (Neisseria gonorrhoeae; [9]): 0.06 to 0.12 µg/mL; MIC90, gonococcal infection (N. gonorrhoeae) (Neisseria gonorrhoeae; second entry of the cell, 500 mg UID line): 0.25 to 0.5 µg/mL
CO/N=C(\C(=O)N[C@@H]1C(=O)N2C(C(=O)O)=C(CSc3nc(=O)c(=O)[nH]n3C)CS[C@H]12)c1csc(N)n1 [Ceftriaxone, reference compound] | – | – | – | – | – | – | – | – | – | – | – | – | – | – | – | – | – | – | MIC90 for S. aureus (Staphylococcus aureus): 8 µg/mL
CO[C@@H]1[C@@H](OC(N)=O)[C@@H](O)[C@H](Oc2ccc3c(O)c(NC(=O)c4ccc(O)c(CC=C(C)C)c4)c(=O)oc3c2C)OC1(C)C [Novobiocin 4, Novobiocin] | – | – | – | – | – | – | – | – | – | – | – | – | – | – | – | – | – | – | susceptibility of fluoroquinolone resistant clinical isolates ([7]; S. aureus ARC2381, S. pneumoniae ARC2480, N. gonorrhoeae ARC4672, ARC4680, ARC4676): fully susceptible; susceptibility of spontaneous ETX0914 resistant mutants [7]: fully susceptible
C[C@@H]1CN2c3c(cc4c(-n5cncn5)noc4c3F)CC3(C(=O)NC(=O)NC3=O)[C@H]2[C@H](C)O1 [Compound 6] | – | 3 µM | – | 0.063 µg/mL (≈ 0.138 µM) | 0.031 µg/mL (≈ 0.0681 µM) | 0.125 µg/mL (≈ 0.274 µM) | 0.125 µg/mL (≈ 0.274 µM) | 237 µM | 224 µM | > 333 µM | > 100 µM | > 333 µM | 73 µM (≈ 33.2 µg/mL) | 99% | 4.5 mL/min/kg | 0.125 µg/mL (≈ 0.274 µM) | 0.25 µg/mL (≈ 0.549 µM) | 0.13 | haematologic effects ([8]; 100 mg/kg/day for 14 days in the rat): decreases in reticulocytes, neutrophils, lymphocytes and monocytes; AUC ([8]; rat, 100 mg/kg): 950 µM·h; AUC ([8]; rat, 250 mg/kg): 1700 µM·h; reticulocytes count ([8]; rat, 6 at the higher dose (250 mg/kg, 5 d), linezolid 6 d): significant suppression; neutrophil count ([8]; rat, both doses of 6, linezolid): showing suppression; lymphocyte counts ([8]; rat, higher dose of 6): leading to suppression; white blood cell count ([8]; rat, higher dose of 6): leading to suppression
N#Cc1ccc2ccc(=O)n(CCN3CC[C@H](NCc4cc5c(cn4)OCCO5)[C@H](F)C3)c2c1 [NBTI 3, 1-[2-[(3R,4S)-4-(2,3-Dihydro-[1,4]dioxino[2,3-c]pyridin-7-ylmethylamino)-3-fluoro-1-piperidyl]ethyl]-2-oxo-quinoline-7-carbonitrile] | – | – | – | – | – | – | – | – | – | – | – | – | – | – | – | – | – | – | susceptibility of fluoroquinolone resistant isolate ARC4680 ([7]; N. gonorrhoeae ARC4680): reduced susceptibility; susceptibility of spontaneous ETX0914 resistant mutants [7]: fully susceptible
Cc1nnc(-c2noc3c(F)c4c(cc23)CC2(C(=O)NC(=O)NC2=O)[C@H]2[C@H](C)O[C@H](C)CN42)o1 [Compound 8] | > 100 µM | > 200 µM | 76 µM | 0.25 µg/mL (≈ 0.531 µM) | 0.25 µg/mL (≈ 0.531 µM) | 0.25 µg/mL (≈ 0.531 µM) | 0.125 µg/mL (≈ 0.266 µM) | – | – | – | – | – | 1350 µM (≈ 635 µg/mL) | 32% | 4.7 mL/min/kg | 1 µg/mL (≈ 2.13 µM) | 1 µg/mL (≈ 2.13 µM) | 0.13 | –
